Data: patent US7329665B2, “Quinazolinone derivative” (Dainippon Sumitomo Pharma Co., Ltd., priority 2001, dated 2008)

System: rhythmic contractions of the bladder
Assay: Effect on rhythmic contractions of bladder (cystometry in urethane-anesthetized rats, i.v. administration)
Format: in vivo
Conditions: female SD-rats under urethane anesthesia, intravenous, ascending doses in 10% PEG, relative to vehicle; for Contractile amplitude: ED30: mean amplitude of bladder contraction during 10-minute period after administration; for Contractile frequency: ED30: mean frequency of bladder contraction during 10-minute period after administration
Experimental: Effect on Rhythmic Contractions of Bladder This test was carried out by some modification of the method of Hedge et al. [Hedge S S. Choppin A. Bonhaus D. Briaud S. Loeb M. Moy T M. Loury D. Eglen R M., British Journal of Pharmacology. 120(8):1409-18, 1997]. Female SD-rats were subjected to abdominal midline incision under urethane anesthesia (0.6 g/kg, s.c. and i.p.), the ureters were ligated, and its kidney side was cut off. A polyethylene cannula was inserted from the urethra into the bladder and the urethra was ligated. The other end of the cannula was connected to a three way connector, to which a constant infusion pump having a 20 ml attached syringe and a pressure transducer for cystometry were also connected. A cannula for administration of a test sample was inserted into the jugular vein and a cannula for measurement of blood pressure and heart rate was inserted into the carotid artery. The intravesical pressure, blood pressure and heart rate were continuously recorded on a polygraph. Physiological saline was infused until rhythmic contractions of the bladder were observed, and after having confirmed stable rhythmic contractions of the bladder, vehicle (10% PEG) and solutions of a test sample dissolved in 10% PEG were administered intravenously in turn from its lower dose. The mean of amplitude and frequency of bladder contraction during a 10-minute period after administration were measured at each dose level, and their rates of change relative to the values obtained when the vehicle alone was administered were calculated, thereby determining ED30 values for the contractile amplitude and the contractile frequency, respectively. It is apparent from Table 1 that the compounds of the present invention depressed not only the contractile amplitude but also the contractile frequency.

| Structure (SMILES) | Contractile amplitude: ED30 | Contractile frequency: ED30 |
| --- | --- | --- |
| CCCc1cccc(CN2CCC(N3C(=O)Nc4ccccc4C3c3ccccc3)CC2)c1 (stereo not shown) [Example 2-1, Optically Active Form of 3-[1-(3-propylphenylmethyl)piperidin-4-yl]-4-phenyl-3,4-dihydro-2(1H)-quinazolinone] | 1.09 mg/kg | 0.70 mg/kg |
| CC(C)Oc1cccc(CN2CCC(N3C(=O)Nc4ccccc4C3c3ccccc3)CC2)c1 (stereo not shown) [Example 2-3, Optically Active Form of 3-[1-(3-isopropoxyphenylmethyl)piperidin-4-yl]-4-phenyl-3,4-dihydro-2(1H)-quinazolinone] | 1.10 mg/kg | 1.54 mg/kg |
| O=C1Nc2ccccc2C(c2ccccc2)N1C1CCN(Cc2cccc(OCC(F)(F)F)c2)CC1 (stereo not shown) [Example 2-4, Optically Active Form of 3-{1-[3-(2,2,2-trifluoroethoxy)phenylmethyl]piperidin-4-yl}-4-phenyl-3,4-dihydro-2(1H)-quinazolinone] | 1.42 mg/kg | 1.35 mg/kg |
| Cc1cccc(CN2CCC(N3C(=O)Nc4ccccc4C3C(C)C)CC2)n1 (single isomer, unassigned; (+)) [Example 3, (+)-4-isopropyl-3-{1-[(6-methyl-2-pyridinyl)methyl]piperidin-4-yl}-3,4-dihydro-2(1H)-quinazolinone] | 0.94 mg/kg | 1.79 mg/kg |
| O=C1Nc2ccccc2C(c2ccccc2)N1C1CCN(Cc2cccc(OC(F)(F)F)c2)CC1 (single isomer, unassigned; (+)) [Example 1, (+)-3-{1-[3-(trifluoromethoxy)benzyl]piperidin-4-yl}-4-phenyl-3,4-dihydro-2(1H)-quinazolinone] | 1.71 mg/kg | 1.31 mg/kg |
